Twelve molecules from patent US12528767B2, “HDAC6 inhibitors and uses thereof” (Eikonizo Therapeutics, Inc., priority 2019, dated 2026) can be followed below.

Read-outs that look alike come from different tables or passages of the source.

Test [1] concerns the target Human HDAC4 aa 101-1084(end) (Homo sapiens, UniProt P56524).
A further test deals with Full length Human HDAC5 (Homo sapiens, UniProt Q9UQL6).
Another test deals with T1, Full length Human HDAC6 (Homo sapiens, UniProt Q9UBN7).
T1 sequence (Q9UBN7 1-1215): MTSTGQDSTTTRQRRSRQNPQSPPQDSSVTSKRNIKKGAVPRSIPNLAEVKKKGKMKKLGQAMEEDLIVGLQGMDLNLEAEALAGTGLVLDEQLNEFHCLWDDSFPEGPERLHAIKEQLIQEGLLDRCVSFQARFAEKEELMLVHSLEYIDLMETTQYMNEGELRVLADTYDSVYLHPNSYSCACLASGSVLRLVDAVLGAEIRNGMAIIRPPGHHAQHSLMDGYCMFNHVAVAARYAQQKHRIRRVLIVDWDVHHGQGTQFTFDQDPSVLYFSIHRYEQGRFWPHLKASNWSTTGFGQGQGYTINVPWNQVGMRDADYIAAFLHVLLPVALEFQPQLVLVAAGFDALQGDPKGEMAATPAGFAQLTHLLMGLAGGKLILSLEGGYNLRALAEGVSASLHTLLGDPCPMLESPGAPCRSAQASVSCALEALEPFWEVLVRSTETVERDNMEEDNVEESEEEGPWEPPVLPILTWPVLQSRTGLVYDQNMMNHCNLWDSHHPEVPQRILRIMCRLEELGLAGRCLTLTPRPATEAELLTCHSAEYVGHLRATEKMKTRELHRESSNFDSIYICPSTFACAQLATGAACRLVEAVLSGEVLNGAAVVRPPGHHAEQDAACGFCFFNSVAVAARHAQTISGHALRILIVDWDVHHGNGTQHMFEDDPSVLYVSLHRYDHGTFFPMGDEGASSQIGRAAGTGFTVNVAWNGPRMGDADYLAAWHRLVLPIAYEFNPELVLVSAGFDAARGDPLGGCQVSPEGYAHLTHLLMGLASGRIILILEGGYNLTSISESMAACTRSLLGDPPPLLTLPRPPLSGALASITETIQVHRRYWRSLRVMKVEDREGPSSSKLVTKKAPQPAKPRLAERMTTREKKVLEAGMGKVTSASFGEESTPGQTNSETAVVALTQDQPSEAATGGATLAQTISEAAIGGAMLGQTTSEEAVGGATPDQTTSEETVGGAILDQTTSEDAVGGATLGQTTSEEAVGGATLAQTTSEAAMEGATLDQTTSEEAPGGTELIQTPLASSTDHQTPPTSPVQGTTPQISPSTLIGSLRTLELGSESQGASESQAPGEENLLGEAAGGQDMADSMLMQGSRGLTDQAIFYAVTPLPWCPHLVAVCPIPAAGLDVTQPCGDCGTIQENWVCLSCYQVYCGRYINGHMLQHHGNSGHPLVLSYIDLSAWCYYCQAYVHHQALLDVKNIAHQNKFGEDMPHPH

In another test the target is T2, Human HDAC7 aa 518-end (Homo sapiens, UniProt Q8WUI4).
T2 sequence (Q8WUI4 518-952 limits assumed): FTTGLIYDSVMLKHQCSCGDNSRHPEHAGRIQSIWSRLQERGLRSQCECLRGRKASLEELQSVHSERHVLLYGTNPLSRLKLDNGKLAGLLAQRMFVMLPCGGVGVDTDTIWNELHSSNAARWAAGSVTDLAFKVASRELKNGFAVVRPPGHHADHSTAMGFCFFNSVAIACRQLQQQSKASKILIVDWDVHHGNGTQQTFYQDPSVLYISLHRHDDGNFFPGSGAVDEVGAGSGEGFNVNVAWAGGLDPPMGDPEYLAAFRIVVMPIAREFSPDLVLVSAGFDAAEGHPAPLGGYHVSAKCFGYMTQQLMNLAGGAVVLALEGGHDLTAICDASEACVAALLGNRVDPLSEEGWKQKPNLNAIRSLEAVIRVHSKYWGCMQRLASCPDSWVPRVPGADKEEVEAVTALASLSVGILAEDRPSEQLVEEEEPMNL

For a further test, the target named is T3, Full length Human HDAC8 (Homo sapiens, UniProt Q9BY41).
T3 sequence (Q9BY41 1-377): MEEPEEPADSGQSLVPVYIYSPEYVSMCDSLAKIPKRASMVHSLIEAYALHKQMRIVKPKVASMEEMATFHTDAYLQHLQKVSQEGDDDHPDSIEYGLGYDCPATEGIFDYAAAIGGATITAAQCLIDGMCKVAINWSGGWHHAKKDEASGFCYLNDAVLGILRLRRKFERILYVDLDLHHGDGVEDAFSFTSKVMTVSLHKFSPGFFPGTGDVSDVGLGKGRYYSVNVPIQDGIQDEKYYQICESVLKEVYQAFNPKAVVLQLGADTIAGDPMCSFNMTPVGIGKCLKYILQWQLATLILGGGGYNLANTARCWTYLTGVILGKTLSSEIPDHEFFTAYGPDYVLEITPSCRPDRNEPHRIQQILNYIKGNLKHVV

The next test addresses T4, Full length Human HDAC10 (Homo sapiens, UniProt Q969S8).
T4 sequence (Q969S8 1-669): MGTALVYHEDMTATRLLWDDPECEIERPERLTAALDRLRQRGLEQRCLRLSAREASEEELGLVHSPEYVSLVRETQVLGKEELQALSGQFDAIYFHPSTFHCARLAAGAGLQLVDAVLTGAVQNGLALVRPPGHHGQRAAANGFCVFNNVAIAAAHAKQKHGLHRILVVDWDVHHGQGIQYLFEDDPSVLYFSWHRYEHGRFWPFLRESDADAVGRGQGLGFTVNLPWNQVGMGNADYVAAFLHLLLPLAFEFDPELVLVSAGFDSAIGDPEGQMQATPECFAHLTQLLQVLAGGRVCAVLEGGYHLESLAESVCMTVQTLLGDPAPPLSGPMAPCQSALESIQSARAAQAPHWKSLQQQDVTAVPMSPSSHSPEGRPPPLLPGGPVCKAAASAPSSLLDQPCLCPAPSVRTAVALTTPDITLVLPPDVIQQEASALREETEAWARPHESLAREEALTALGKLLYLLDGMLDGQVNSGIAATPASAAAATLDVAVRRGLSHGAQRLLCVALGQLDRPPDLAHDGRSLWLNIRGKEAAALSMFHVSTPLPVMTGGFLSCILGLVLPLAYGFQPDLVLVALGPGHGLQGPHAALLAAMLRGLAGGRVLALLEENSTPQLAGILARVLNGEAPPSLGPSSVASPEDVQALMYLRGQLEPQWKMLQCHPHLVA

Setting [2] is: read-out: In vitro enzymatic IC50, HDAC Paralog 6, Table 2.
The mark [3] stands for this setting: read-out: In vitro enzymatic IC50, HDAC Paralog 8, Table 2.

Human HDAC4 aa 101-1084(end), sequence (P56524 101-1084): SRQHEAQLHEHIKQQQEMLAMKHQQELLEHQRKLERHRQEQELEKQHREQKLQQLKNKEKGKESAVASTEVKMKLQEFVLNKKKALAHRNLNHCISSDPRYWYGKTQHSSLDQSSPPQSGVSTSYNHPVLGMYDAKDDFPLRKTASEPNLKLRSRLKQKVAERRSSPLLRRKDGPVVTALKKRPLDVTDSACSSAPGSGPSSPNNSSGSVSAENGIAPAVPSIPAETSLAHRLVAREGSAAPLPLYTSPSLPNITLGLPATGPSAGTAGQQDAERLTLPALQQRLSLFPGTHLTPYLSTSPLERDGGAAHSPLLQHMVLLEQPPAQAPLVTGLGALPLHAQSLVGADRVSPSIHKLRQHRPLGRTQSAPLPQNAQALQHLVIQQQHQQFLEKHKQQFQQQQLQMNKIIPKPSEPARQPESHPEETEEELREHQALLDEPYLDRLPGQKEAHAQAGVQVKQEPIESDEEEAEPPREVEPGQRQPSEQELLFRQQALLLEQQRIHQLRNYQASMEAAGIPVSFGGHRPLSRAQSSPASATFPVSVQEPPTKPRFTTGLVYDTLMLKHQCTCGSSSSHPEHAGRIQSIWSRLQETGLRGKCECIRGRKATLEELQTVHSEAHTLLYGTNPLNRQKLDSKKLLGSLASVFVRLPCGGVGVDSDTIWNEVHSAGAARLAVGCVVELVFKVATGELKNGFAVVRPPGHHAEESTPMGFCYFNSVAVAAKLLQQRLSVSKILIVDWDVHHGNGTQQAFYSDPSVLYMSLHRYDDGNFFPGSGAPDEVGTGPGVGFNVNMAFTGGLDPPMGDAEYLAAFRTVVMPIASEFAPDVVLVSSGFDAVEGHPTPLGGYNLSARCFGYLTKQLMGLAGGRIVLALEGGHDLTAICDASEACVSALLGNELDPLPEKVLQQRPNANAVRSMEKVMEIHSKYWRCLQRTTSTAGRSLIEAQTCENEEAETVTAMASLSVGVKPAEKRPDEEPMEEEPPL
Full length Human HDAC5, sequence (Q9UQL6 whole entry): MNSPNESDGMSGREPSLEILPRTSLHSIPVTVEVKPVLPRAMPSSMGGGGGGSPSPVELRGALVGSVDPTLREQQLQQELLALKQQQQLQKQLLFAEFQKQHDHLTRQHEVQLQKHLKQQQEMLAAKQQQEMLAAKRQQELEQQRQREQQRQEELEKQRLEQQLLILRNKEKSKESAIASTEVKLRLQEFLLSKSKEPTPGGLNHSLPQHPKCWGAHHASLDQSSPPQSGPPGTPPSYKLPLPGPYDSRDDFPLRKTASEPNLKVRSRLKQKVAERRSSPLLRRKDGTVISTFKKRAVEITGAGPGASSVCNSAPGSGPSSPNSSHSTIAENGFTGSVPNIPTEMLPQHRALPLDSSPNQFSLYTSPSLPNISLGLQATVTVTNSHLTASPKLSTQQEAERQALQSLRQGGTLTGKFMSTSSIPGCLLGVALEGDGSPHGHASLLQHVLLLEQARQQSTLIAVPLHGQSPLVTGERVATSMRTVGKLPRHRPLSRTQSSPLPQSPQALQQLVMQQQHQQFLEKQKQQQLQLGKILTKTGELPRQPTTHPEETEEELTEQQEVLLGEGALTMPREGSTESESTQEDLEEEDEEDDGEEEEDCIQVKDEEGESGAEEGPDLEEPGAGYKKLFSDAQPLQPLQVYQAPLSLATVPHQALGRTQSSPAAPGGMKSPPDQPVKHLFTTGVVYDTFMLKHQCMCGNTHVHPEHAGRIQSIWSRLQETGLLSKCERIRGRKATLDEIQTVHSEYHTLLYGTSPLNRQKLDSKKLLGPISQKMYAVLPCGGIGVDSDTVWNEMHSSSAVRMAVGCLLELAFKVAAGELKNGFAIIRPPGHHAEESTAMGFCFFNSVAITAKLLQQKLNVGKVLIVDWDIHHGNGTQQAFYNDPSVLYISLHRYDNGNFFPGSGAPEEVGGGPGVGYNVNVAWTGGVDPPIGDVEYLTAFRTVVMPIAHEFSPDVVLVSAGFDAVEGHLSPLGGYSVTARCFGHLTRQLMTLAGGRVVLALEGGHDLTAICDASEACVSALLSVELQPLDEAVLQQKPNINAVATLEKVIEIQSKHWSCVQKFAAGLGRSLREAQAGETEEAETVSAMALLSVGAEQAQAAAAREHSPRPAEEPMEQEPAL

`O=C(NO)c1ccc(CN2C[C@H]3CC[C@@H]2CO3)c(F)c1` (single isomer, unassigned) [compound 173]: the IC50 in test [1] lay in the range of 1 to 10 µM; on Full length Human HDAC5, 10 to 100 µM; against Full length Human HDAC6 it was 1 to 100 nM; against Human HDAC7 aa 518-end, 1 to 10 µM; against Full length Human HDAC8 it was 1 to 10 µM; at Full length Human HDAC10, 10 to 100 µM.

On to `O=C(NO)c1ccc(CN2CC3CCC(C2)O3)c(F)c1` [compound 53], for which the IC50 in test [1] is 1 to 10 µM; at Full length Human HDAC5 it was 1 to 10 µM; against Full length Human HDAC6, 1 to 100 nM; at Full length Human HDAC6 (setting [2]) it was 1 to 100 nM; on Human HDAC7 aa 518-end it was 0.1 to 1 µM; against Full length Human HDAC8, 0.1 to 1 µM. The IC50 on Full length Human HDAC8 (setting [3]) lay within 0.1 to 1 µM; against Full length Human HDAC10, 1 to 10 µM.

Take `O=C(NO)c1ccc(CN2CCC3(CCCCC3)C2)c(F)c1` [compound 75, 4-((2-Azaspiro[4.5]decan-2-yl)methyl)-3-fluoro-N-hydroxybenzamide]: the IC50 on Full length Human HDAC6 was 1 to 100 nM; at Full length Human HDAC6 (setting [2]), 1 to 100 nM; on Human HDAC7 aa 518-end, 1 to 10 µM; at Full length Human HDAC8, 1 to 10 µM; at Full length Human HDAC8 (setting [3]), 1 to 10 µM; at Full length Human HDAC10 it was 10 to 100 µM.

For `O=C(NO)c1cc(F)c2c(c1)C[C@@H]1CCCCN1C2` (single isomer, unassigned) [compound 93], the IC50 fell in the range of 1 to 10 µM in test [1]; 1 to 10 µM at Full length Human HDAC5; 1 to 100 nM against Full length Human HDAC6; 1 to 10 µM on Human HDAC7 aa 518-end; 1 to 10 µM against Full length Human HDAC8; 10 to 100 µM against Full length Human HDAC10.

Regarding `O=C(NO)c1ccc(CN2C[C@@H]3CC[C@H]2CO3)c(F)c1` (single isomer, unassigned) [compound 172], the IC50 in test [1] was in the range of 10 to 100 µM; against Full length Human HDAC5, 10 to 100 µM; against Full length Human HDAC6, 1 to 100 nM; on Full length Human HDAC6 (setting [2]) it was 1 to 100 nM; against Human HDAC7 aa 518-end, 1 to 10 µM; against Full length Human HDAC8, 1 to 10 µM. The IC50 on Full length Human HDAC8 (setting [3]) is 1 to 10 µM; against Full length Human HDAC10, > 100 µM.

For the molecule `O=C(NO)c1cc(F)c2c(c1)CCN(Cc1ccccc1)C2` [compound 32], the IC50 is 1 to 100 nM at Full length Human HDAC6; 1 to 100 nM at Full length Human HDAC6 (setting [2]); 1 to 10 µM on Human HDAC7 aa 518-end; 1 to 10 µM against Full length Human HDAC8; 1 to 10 µM on Full length Human HDAC8 (setting [3]); 10 to 100 µM at Full length Human HDAC10.

For `O=C(NO)c1cc(F)c2c(c1)CCN(CC13CC4CC(CC(C4)C1)C3)C2` [compound 34], the IC50 in test [1] was 10 to 100 µM; on Full length Human HDAC5, 10 to 100 µM; on Full length Human HDAC6, 1 to 100 nM; at Full length Human HDAC6 (setting [2]), 1 to 100 nM; on Human HDAC7 aa 518-end, 10 to 100 µM; at Full length Human HDAC8, 10 to 100 µM. For the same molecule, the IC50 on Full length Human HDAC8 (setting [3]) and at Full length Human HDAC10 was 10 to 100 µM in each case.

Consider `O=C(NO)c1cc(F)c2c(c1)C[C@H]1CCCCN1C2` (single isomer, unassigned) [compound 94], for which the IC50 was 10 to 100 µM in test [1]; 10 to 100 µM against Full length Human HDAC5; 100 to 1000 nM at Full length Human HDAC6; 1 to 10 µM on Human HDAC7 aa 518-end; 1 to 10 µM against Full length Human HDAC8; > 100 µM against Full length Human HDAC10.

With `O=C(NO)c1ccc2c(c1)CN1CCCCN1C2` [compound 106, N-hydroxy-1,2,3,4,6,11-hexahydropyridazino[1,2-b]phthalazine-8-carboxamide], the IC50 was 10 to 100 µM in test [1]; > 100 µM at Full length Human HDAC5; 100 to 1000 nM against Full length Human HDAC6; 100 to 1000 nM on Full length Human HDAC6 (setting [2]); 10 to 100 µM against Human HDAC7 aa 518-end; 1 to 10 µM against Full length Human HDAC8. Also, the values for the IC50 at Full length Human HDAC8 (setting [3]) and at Full length Human HDAC10 were 1 to 10 µM and > 100 µM, respectively.

In the case of `O=C(NO)c1ccc(CN2CC3CCC2CO3)c(F)c1` (stereo not drawn) [compound 58], the IC50 in test [1] lay in the range of 1 to 10 µM; at Full length Human HDAC5, 1 to 10 µM; against Full length Human HDAC6, 1 to 100 nM; on Full length Human HDAC6 (setting [2]) it was 1 to 100 nM; at Human HDAC7 aa 518-end, 1 to 10 µM; at Full length Human HDAC8, 0.1 to 1 µM. Moreover, the results for the IC50 on Full length Human HDAC8 (setting [3]) and on Full length Human HDAC10 were 0.1 to 1 µM and 10 to 100 µM, respectively.

Take `O=C(NO)c1cc(F)c2c(c1)CCN1CCC[C@@H]21` (single isomer, unassigned) [compound 79]: the IC50 lay in the range of 1 to 10 µM in test [1]; 1 to 10 µM at Full length Human HDAC5; 1 to 100 nM against Full length Human HDAC6; 0.1 to 1 µM against Human HDAC7 aa 518-end; 1 to 10 µM against Full length Human HDAC8; 10 to 100 µM against Full length Human HDAC10.

With `O=C(NO)c1cc(F)c2c(c1)CCN(C1CC3(CCCCC3)C1)C2` [compound 16], the IC50 is 10 to 100 µM in test [1]; > 100 µM against Full length Human HDAC5; 1 to 100 nM against Full length Human HDAC6; 1 to 100 nM on Full length Human HDAC6 (setting [2]); 10 to 100 µM at Human HDAC7 aa 518-end; 10 to 100 µM on Full length Human HDAC8. The IC50 at Full length Human HDAC8 (setting [3]) and against Full length Human HDAC10 was 10 to 100 µM in each case.

For orientation: IC50 means the concentration that gives 50% inhibition.
